This is an account of results in ChEMBL document CHEMBL5579900, “Enhanced Recognition Memory through Dual Modulation of Brain Carbonic Anhydrases and Cholinesterases” (J Med Chem, 2024).

In assay [1] the target is Carbonic anhydrase 5B, mitochondrial (Homo sapiens) (UniProt Q9Y2D0).
Description: Binding affinity to human carbonic anhydrase 5B assessed as activation constant by phenol red dye based stopped-flow method
Assay [2] has as its target Carbonic anhydrase 2 (Homo sapiens) (UniProt P00918).
Description: Binding affinity to human carbonic anhydrase 2 assessed as activation constant by phenol red dye based stopped-flow method
Assay [3] concerns the target Carbonic anhydrase 7 (Homo sapiens) (UniProt P43166).
Description: Binding affinity to human carbonic anhydrase 7 assessed as activation constant by phenol red dye based stopped-flow method
A further assay deals with Acetylcholinesterase (Electrophorus electricus, UniProt O42275).
The target in assay [4] is Carbonic anhydrase 1 (Homo sapiens) (UniProt P00915).
Description: Binding affinity to human carbonic anhydrase 1 assessed as activation constant by phenol red dye based stopped-flow method
The target in a further assay is Cholinesterase (Equus caballus, UniProt P81908).
Assay [5] concerns the target Carbonic anhydrase 4 (Homo sapiens) (UniProt P22748).
Description: Binding affinity to human carbonic anhydrase 4 assessed as activation constant by phenol red dye based stopped-flow method

Sequence of Carbonic anhydrase 7 (Homo sapiens) (P43166 whole entry): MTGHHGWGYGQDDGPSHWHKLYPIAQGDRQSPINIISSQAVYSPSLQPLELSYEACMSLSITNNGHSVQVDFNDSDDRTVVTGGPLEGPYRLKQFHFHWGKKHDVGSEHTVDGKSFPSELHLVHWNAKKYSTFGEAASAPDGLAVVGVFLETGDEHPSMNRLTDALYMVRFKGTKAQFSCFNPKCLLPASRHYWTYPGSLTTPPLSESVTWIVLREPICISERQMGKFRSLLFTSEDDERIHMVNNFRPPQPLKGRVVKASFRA
Sequence of Carbonic anhydrase 1 (Homo sapiens) (P00915 2-261 limits assumed): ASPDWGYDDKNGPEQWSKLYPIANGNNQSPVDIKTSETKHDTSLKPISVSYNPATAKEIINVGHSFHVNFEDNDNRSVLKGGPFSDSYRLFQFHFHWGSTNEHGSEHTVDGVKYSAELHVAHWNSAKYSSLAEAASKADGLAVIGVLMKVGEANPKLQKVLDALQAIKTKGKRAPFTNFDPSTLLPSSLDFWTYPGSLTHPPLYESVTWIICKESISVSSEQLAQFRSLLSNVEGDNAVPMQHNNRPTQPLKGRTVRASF
Sequence of Cholinesterase (P81908 whole entry): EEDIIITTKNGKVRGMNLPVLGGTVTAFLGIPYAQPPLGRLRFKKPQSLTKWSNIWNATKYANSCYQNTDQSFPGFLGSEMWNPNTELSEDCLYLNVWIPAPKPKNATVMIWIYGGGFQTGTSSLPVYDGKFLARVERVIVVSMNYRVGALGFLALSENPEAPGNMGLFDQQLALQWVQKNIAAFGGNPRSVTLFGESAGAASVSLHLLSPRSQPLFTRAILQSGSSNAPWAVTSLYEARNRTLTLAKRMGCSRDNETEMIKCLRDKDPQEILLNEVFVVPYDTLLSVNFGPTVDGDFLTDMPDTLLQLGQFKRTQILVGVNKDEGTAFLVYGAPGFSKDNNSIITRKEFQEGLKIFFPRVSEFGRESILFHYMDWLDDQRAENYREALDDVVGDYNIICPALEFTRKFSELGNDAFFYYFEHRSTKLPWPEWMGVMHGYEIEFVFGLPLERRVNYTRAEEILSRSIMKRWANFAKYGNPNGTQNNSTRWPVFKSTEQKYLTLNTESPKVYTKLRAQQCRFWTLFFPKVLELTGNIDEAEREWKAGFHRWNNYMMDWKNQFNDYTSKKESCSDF
Sequence of Carbonic anhydrase 4 (Homo sapiens) (P22748 whole entry): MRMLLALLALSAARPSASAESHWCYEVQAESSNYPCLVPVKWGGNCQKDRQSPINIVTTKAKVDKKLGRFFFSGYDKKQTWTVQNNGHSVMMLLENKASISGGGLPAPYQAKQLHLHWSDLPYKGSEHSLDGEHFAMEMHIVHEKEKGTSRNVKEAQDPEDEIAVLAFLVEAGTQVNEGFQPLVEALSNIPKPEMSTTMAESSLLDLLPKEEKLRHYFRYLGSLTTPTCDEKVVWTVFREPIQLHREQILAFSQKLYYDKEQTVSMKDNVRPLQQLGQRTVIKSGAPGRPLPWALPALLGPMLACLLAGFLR
Sequence of Carbonic anhydrase 5B, mitochondrial (Homo sapiens) (Q9Y2D0 whole entry): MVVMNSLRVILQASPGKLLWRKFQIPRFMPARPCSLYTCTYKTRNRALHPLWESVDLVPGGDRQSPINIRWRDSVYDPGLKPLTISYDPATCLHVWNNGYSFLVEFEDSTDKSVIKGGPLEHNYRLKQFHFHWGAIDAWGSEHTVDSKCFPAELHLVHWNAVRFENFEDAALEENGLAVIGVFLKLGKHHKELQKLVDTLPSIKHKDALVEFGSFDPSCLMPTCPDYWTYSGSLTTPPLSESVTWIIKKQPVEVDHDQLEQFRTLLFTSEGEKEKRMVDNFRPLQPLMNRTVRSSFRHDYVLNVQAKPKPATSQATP
Sequence of Acetylcholinesterase (O42275 whole entry): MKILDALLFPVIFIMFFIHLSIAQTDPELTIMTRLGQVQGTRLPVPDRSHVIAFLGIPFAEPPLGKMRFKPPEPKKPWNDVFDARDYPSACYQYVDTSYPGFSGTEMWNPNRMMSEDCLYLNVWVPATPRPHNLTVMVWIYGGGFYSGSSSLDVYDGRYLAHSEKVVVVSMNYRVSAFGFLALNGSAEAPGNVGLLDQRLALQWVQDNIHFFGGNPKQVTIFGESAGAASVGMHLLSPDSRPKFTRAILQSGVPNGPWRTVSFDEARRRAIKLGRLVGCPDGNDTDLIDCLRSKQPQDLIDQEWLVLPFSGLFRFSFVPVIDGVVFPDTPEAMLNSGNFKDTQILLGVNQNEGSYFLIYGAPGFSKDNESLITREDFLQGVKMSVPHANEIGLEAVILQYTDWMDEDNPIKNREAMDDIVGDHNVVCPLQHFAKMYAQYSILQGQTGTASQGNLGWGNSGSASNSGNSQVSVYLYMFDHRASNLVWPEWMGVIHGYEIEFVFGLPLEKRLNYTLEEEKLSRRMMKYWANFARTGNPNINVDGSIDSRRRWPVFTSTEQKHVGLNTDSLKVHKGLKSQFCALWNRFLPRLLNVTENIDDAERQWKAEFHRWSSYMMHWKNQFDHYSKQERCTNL
Description for Acetylcholinesterase: Inhibition of electric eel AChE by microplate reader based analysis

On to `N[C@@H](Cc1c[nH]c2ccccc12)C(=O)NCCCCCCNc1c2c(nc3ccccc13)CCCC2`, for which the KA was determined as 353 nM in assay [1] (filed as activator); 539 nM in assay [2] (filed as activator); 79.8 nM in assay [3] (filed as activator); 876 nM in assay [4] (filed as activator); 0.541 µM in assay [5] (filed as activator). The 50% inhibitory concentration (IC50) – broadly, the concentration that gives 50% inhibition – against Acetylcholinesterase amounted to 2.4 nM; against Cholinesterase it was 1.2 nM.

For the compound `N[C@@H](Cc1c[nH]cn1)C(=O)NCCCCCCNc1c2c(nc3ccccc13)CCCC2`, the KA stood at 554 nM in assay [1] (filed as activator); 283 nM in assay [2] (filed as activator); 82.8 nM in assay [3] (filed as activator); 1050 nM in assay [4] (filed as activator); 3.56 µM in assay [5] (filed as activator). Moreover, the values for the IC50 on Acetylcholinesterase and on Cholinesterase were 12.1 nM and 5.2 nM, respectively.

Regarding `CC(C)(C)OC(=O)N[C@@H](Cc1ccccc1)C(=O)NCCCNc1c2c(nc3ccccc13)CCCC2`, the KA in assay [1] is above 50000 nM; in assay [2], above 50000 nM; in assay [3], above 50000 nM; in assay [4] it was above 50000 nM; in assay [5] it was above 50 µM. Also, the IC50 on Acetylcholinesterase is 202 nM; against Cholinesterase, 0.16 nM.

With `NCCc1c[nH]cn1`, the KA in assay [1] (filed as activator) is 3500 nM; in assay [2], above 100000 nM; in assay [3] (filed as activator), 37000 nM; in assay [4] (filed as activator), 2100 nM; in assay [5] (filed as activator), 25 µM.

Take `COC(=O)[C@@H](N)Cc1ccc(OCCCCCNc2c3c(nc4ccccc24)CCCC3)cc1`: the KA in assay [1] (filed as activator) is 1730 nM; in assay [2] (filed as activator), 372 nM; in assay [3] (filed as activator), 803 nM; in assay [4] (filed as activator) it was 552 nM; in assay [5] (filed as activator), 16.8 µM. Further, the figures for the concentration for half-maximal inhibition (IC50) on Acetylcholinesterase and on Cholinesterase were 22.1 nM and 0.048 nM, respectively.

Regarding `COC(=O)[C@H](Cc1c[nH]c2ccccc12)NCCCCCNc1c2c(nc3ccccc13)CCCC2`, the KA in assay [1] (filed as activator) amounted to 471 nM; in assay [2] (filed as activator) it was 840 nM; in assay [3] (filed as activator) it was 482 nM; in assay [4] (filed as activator), 606 nM; in assay [5] (filed as activator), 2.93 µM. In addition, the IC50 was determined as 37.6 nM against Acetylcholinesterase and 4 nM on Cholinesterase.

Take `N[C@@H](Cc1c[nH]c2ccccc12)C(=O)NCCCCCNc1c2c(nc3ccccc13)CCCC2`: the KA in assay [1] (filed as activator) amounted to 936 nM; in assay [2] (filed as activator) it was 119 nM; in assay [3] (filed as activator), 105 nM; in assay [4] (filed as activator), 630 nM; in assay [5] (filed as activator) it was 1.72 µM. Moreover, the IC50 came out at 37.8 nM at Acetylcholinesterase and 1 nM on Cholinesterase.

As for `N[C@@H](CCCCNC(=O)OCc1ccccc1)C(=O)NCCCCNc1c2c(nc3ccccc13)CCCC2`, the KA in assay [1] (filed as activator) was 1400 nM; in assay [2] (filed as activator), 1900 nM; in assay [3] (filed as activator), 975 nM; in assay [4] (filed as activator) it was 3270 nM; in assay [5] (filed as activator), 9.73 µM. Further, the half-inhibitory concentration (IC50) at Acetylcholinesterase is 250 nM; on Cholinesterase, 2.5 nM.

As to `N[C@@H](Cc1ccccc1)C(=O)NCCCCNc1c2c(nc3ccccc13)CCCC2`, the KA worked out at 4790 nM in assay [1] (filed as activator); 565 nM in assay [2] (filed as activator); 433 nM in assay [3] (filed as activator); 432 nM in assay [4] (filed as activator); 7.62 µM in assay [5] (filed as activator). For the same compound, the IC50 on Acetylcholinesterase amounted to 465 nM; at Cholinesterase it was 9.5 nM.

For the compound `CC(C)(C)OC(=O)N[C@@H](CCCCNC(=O)OCc1ccccc1)C(=O)NCCCCNc1c2c(nc3ccccc13)CCCC2`, the KA in assay [1] is above 50000 nM; in assay [2], above 50000 nM; in assay [3], above 50000 nM; in assay [4], above 50000 nM; in assay [5] it was above 50 µM. Moreover, the half-inhibitory concentration (IC50) on Acetylcholinesterase is 327 nM; on Cholinesterase, 0.16 nM.

For the compound `CC(C)(C)OC(=O)N[C@@H](Cc1c[nH]c2ccccc12)C(=O)NCCCCCNc1c2c(nc3ccccc13)CCCC2`, the KA in assay [1] (filed as activator) turned out to be 7150 nM; in assay [2] (filed as activator), 2940 nM; in assay [3] (filed as activator) it was 1020 nM; in assay [4] (filed as activator), 1010 nM; in assay [5] (filed as activator), 5.67 µM. For the same compound, the results for the half-inhibitory concentration (IC50) on Acetylcholinesterase and against Cholinesterase were 108 nM and 0.22 nM, respectively.
